# In PubChem BioAssay (NCI):
#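 Protocol summary: plate cells (96-well), add compound at 5 concentrations, incubate 48 h, interpolate endpoints linearly. TGI is the concentration that stops growth completely.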
# Tested on: P388 leukemia
# Assay: NCI tumour cell line growth inhibition, 48 h
compound,measurement,value
Nc1nc(F)nc2c1ncn2C1OC(COP(=O)(O)O)C(O)C1O (stereo unspecified),TGI,150 µM
